Consider 21 molecules from ChEMBL document CHEMBL3608235, “Pyrroloaryls and pyrroloheteroaryls: Inhibitors of the HIV fusion/attachment, reverse transcriptase and integrase” (Bioorg Med Chem, 2015).

In series [1] the test system is Human immunodeficiency virus. Kind of series: Antiviral activity against HIV expressing raltegravir-resistant integrase mutants. The class given is functional, organism-based. The conditions noted are these: Human immunodeficiency virus 1.
A short description of series [2]: Inhibition of HIV1 LTR-mediated transcription assessed as drug level causing 50% inhibition of protein/RNA complex formation incubated for 15 mins. More on the design: species or system Human immunodeficiency virus.
For series [3], the system named is Human immunodeficiency virus. Kind of series: Antiviral activity against HIV infected in human MT4 cells assessed as reduction in virus-induced cytopathogenicity. The class given is functional, organism-based. The conditions noted are these: Human immunodeficiency virus 1, MT4. For orientation: Protection from cytopathic effect is a common read-out in antiviral testing.

Series [4] deals with Human immunodeficiency virus 1. Kind of series: Antiviral activity against HIV1. The class given is functional, organism-based.
Series [5] relates to Human immunodeficiency virus 1. Kind of series: Antiviral activity against HIV1 3B infected in human MT2 cells assessed as reduction in virus-induced cell death. The class given is functional. The conditions noted are these: Human immunodeficiency virus 1, 3B.
The nature of series [6]: Cytotoxicity against human MT2 cells. The class given is cell-based. The conditions noted are these: read-out: TC50 (the source's name).
The test system of another series is PBL. As to the kind of experiment: Cytotoxicity against human PBL cells incubated for 4 days by MTT assay. The class given is cell-based. The conditions noted are these: 96 h. In general terms: Tetrazolium dyes change colour on reduction, which living cells bring about.
For series [7], the system named is Human immunodeficiency virus 1. As to the kind of experiment: Antiviral activity against HIV1 3B infected in human primary lymphocytes assessed as reduction in p24 production incubated for 4 days by ELISA method. The conditions noted are these: Human immunodeficiency virus 1, 3B, 96 h. The class given is functional, organism-based.
Series [8] relates to Human immunodeficiency virus. Kind of series: Antiviral activity against HIV by XTT assay. The class given is functional, organism-based. The conditions noted are these: Human immunodeficiency virus 1.
The next series relates to KB. As to the kind of experiment: Cytotoxicity against human KB cells. The class given is cell-based.
Series [9] has as its system Human immunodeficiency virus 1. Kind of series: Antiviral activity against HIV1 infected in human MT4 cells. The class given is functional, organism-based. The conditions noted are these: Human immunodeficiency virus 1, MT4.
The subject of series [10] is Human immunodeficiency virus 1. As to the kind of experiment: Antiviral activity against HIV1 by multi-cycle antiviral assay. The class given is functional, organism-based.
Series [11] deals with Human immunodeficiency virus 1. As to the kind of experiment: Antiviral activity against HIV1 by single-cycle antiviral assay. The class given is functional, organism-based.
In series [12] the test system is Human immunodeficiency virus. As to the kind of experiment: Antiviral activity against HIV. The class given is functional, organism-based. The conditions noted are these: Human immunodeficiency virus 1.
The test system of series [13] is Human immunodeficiency virus 1. As to the kind of experiment: Antiviral activity against HIV1 BCF02 assessed as inhibition of virus mediated cell fusion between CEMx174 5.25M7 cells and […] cells. The class given is functional, organism-based. The conditions noted are these: Human immunodeficiency virus 1, BCF02, CEMx174 5.25M7.
For series [14], the system named is Human immunodeficiency virus 1. As to the kind of experiment: Antiviral activity against HIV1 92UG029 assessed as inhibition of virus mediated cell fusion between CEMx174 5.25M7 cells and […] cells. The class given is functional, organism-based. The conditions noted are these: Human immunodeficiency virus 1, 92UG029, CEMx174 5.25M7.
A short description of series [15]: Toxicity against human U87-T4-CXCR4 cells. The class given is cell-based, U-87MG ATCC.
Series [16] relates to Human immunodeficiency virus 1. Kind of series: Antiviral activity against HIV1 3B assessed as inhibition of virus mediated cell fusion between MT2 cells and H9/HIV1 3B cells. The class given is functional, organism-based. The conditions noted are these: Human immunodeficiency virus 1, 3B.
Series [17] deals with Human immunodeficiency virus 1. Kind of series: Antiviral activity against HIV1 3B. The class given is functional, organism-based. The conditions noted are these: Human immunodeficiency virus 1, 3B.
The test system of series [18] is Human immunodeficiency virus 1. As to the kind of experiment: Antiviral activity against HIV1 RF. The class given is functional, organism-based. The conditions noted are these: Human immunodeficiency virus 1, RF.
Series [19] in a line: Toxicity against human CEMx174 5.25M7 cells. The class given is cell-based.
Series [20] has as its system Human immunodeficiency virus 1. Kind of series: Antiviral activity against HIV1 SF162 assessed as inhibition of virus mediated cell fusion between CEMx174 5.25M7 cells and PBMC/HIV1 SF162 cells. The class given is functional, organism-based. The conditions noted are these: Human immunodeficiency virus 1, SF162, CEMx174 5.25M7.
Series [21] has as its system Human immunodeficiency virus 1. Kind of series: Antiviral activity against HIV1 93BR020 assessed as inhibition of virus mediated cell fusion between CEMx174 5.25M7 cells and PBMC/HIV1 93BR020 cells. The conditions noted are these: Human immunodeficiency virus 1, 93BR020, CEMx174 5.25M7. The class given is functional, organism-based.
Series [22] deals with Human immunodeficiency virus 1. Kind of series: Antiviral activity against HIV1 SF2. The conditions noted are these: Human immunodeficiency virus 1, SF2. The class given is functional, organism-based.
The nature of series [23]: Toxicity against human U373-MAGI-CXCR4-CEM cells. The class given is cell-based.
Series [24] can be described thus: Toxicity against human MT2 cells. The class given is cell-based.
The test system of series [25] is Human immunodeficiency virus 1. As to the kind of experiment: Antiviral activity against HIV1 93TH051 assessed as inhibition of virus mediated cell fusion between CEMx174 5.25M7 cells and PBMC/HIV1 93TH051 cells. The class given is functional, organism-based. The conditions noted are these: Human immunodeficiency virus 1, 93TH051, CEMx174 5.25M7.
Series [26] deals with Human immunodeficiency virus 1. Kind of series: Antiviral activity against HIV1 BAL. The conditions noted are these: Human immunodeficiency virus 1, BAL. The class given is functional, organism-based.
The test system of series [27] is Human immunodeficiency virus 1. As to the kind of experiment: Antiviral activity against HIV1 NL4-3. The class given is functional, organism-based. The conditions noted are these: Human immunodeficiency virus 1, NL4-3.
The test system of series [28] is Human immunodeficiency virus 1. As to the kind of experiment: Antiviral activity against HIV1 JRFL. The conditions noted are these: Human immunodeficiency virus 1, JRFL. The class given is functional, organism-based.
Series [29] relates to Human immunodeficiency virus 1. Kind of series: Antiviral activity against HIV1 TLAV. The class given is functional, organism-based. The conditions noted are these: Human immunodeficiency virus 1, TLAV.
Series [30] relates to Human immunodeficiency virus 1. As to the kind of experiment: Antiviral activity against HIV1 SF162. The conditions noted are these: Human immunodeficiency virus 1, SF162. The class given is functional, organism-based.
For series [31], the system named is Human immunodeficiency virus 2. As to the kind of experiment: Antiviral activity against HIV2 LAI. The class given is functional, organism-based. The conditions noted are these: Human immunodeficiency virus 2, LAI.

In brackets after ≈: the same amount, converted by molar mass. A value given as a limit tells only on which side of the number the result lay.

The IC50 is the point on the concentration scale where inhibition reaches its midpoint. The AC50 is the midpoint of the concentration-response curve, whichever way the signal moves. As usually defined, the EC50 is the midpoint of the concentration-response curve. As usually defined, the IC90 is the point of the concentration-response curve where the effect stands at 90%.

The molecule `CC(=O)OCC1=C2C(=O)N(Cc3ccc(F)c(Cl)c3)C(=O)C2=C(O)C(=O)C1C(C)C` (configuration not stated) showed an IC50 in [1] of 15.6 µM.
Same read-out and setting: the figure for `O=C1CC(CO)=C2C(=O)N(Cc3ccc(F)c(Cl)c3)C(=O)C2=C1O` is 6.5 µM.
As to `COc1cc2c(cc1OCCC(=O)Nc1cc(C(=O)Nc3cc(C(=O)Nc4cc(C(=O)NCCC(=N)N)n(C)c4)n(C)c3)n(C)c1)N=C[C@@H]1CCCN1C2=O`, the AC50 in series [2] worked out at 15 µM.
Still for that read-out and setting: the figure for `COc1cc2c(cc1OCCC(=O)Nc1cc(C(=O)Nc3cc(C(=O)NCCC(=N)N)n(C)c3)n(C)c1)N=C[C@@H]1CCCN1C2=O` is 20 µM.
Turning to `O=C(O)c1ccc(OCc2nc3ccccc3n3cccc23)cc1`, in series [3], the EC50 was greater than 8 µg/mL.
With `C[C@@H]1CN(C(=O)c2ccccc2)CCN1C(=O)C(=O)c1c[nH]c2ncccc12`, in [4], it took 0.0017 µM to reach a half-maximal effect (EC50).
Take `O=C1[C@H](Cc2ccc(O)cc2)n2cccc2-c2ccccc2N1CCc1ccc(O)cc1`: the IC90 in series [5] came out at 0.8 µg/mL (≈ 1.88 µM). The CC50 in series [6] came out at 10 µg/mL (≈ 23.6 µM).
For the molecule `CN1C(=O)c2ccn(C)c2S(=O)(=O)c2ccccc21`, the half-maximal effective concentration (EC50) was greater than 362 µM with PBL and 14 µM in series [7].
In turn, `CN1N=C(N)c2cn([C@@H]3O[C@H](CO)[C@@H](O)[C@H]3O)c3nc(-c4ccccc4)nc1c23` showed an IC50 in series [8] of 3 µM. Besides, the half-maximal effective concentration (EC50) in the series with KB is greater than 100 µM.
For the molecule `CN1N=C(N)c2cn([C@H]3CC[C@@H](CO)O3)c3ncnc1c23`, the EC50 in series [4] was 21 µM.
Molecule `CCOC(=O)c1cc2c3ccccc3c3ccccc3n2c1C` returned a concentration for a half-maximal effect (EC50) in [9] of 100 µM.
In the case of `O=C1NC(c2cccnc2)c2c(-c3ccccc3)n[nH]c21` (configuration not stated), the EC50 in series [10] is 7.5 µM; in series [11], 8.2 µM.
Taken in the same sequence, the figures for `O=C1NC(c2ccc(O)cc2)c2c(-c3ccccc3)n[nH]c21` (configuration not stated) were 1.4 µM and 1.8 µM.
Molecule `CCOC(=O)c1cc2c3cccc(OC)c3c3c(N)cccc3n2c1C` yielded an EC50 in series [9] of 60 µM.
`N#Cc1cn(COCCO)c2ncnc(N)c12` came in with an IC50 in series [12] of 46 µM.
The same measure, in the same setting: the figure for `N#Cc1cn(COC(CO)CO)c2nc(N)nc(O)c12` is 3 µM.
With `O=C(O)c1cc(-n2cccc2)ccc1Cl`, the concentration for a half-maximal effect (EC50) in [13] is 46.4 µM; in series [14], 29 µM; in series [16], 29.9 µM; in [17], 2.21 µM; in series [18], 3.58 µM; in [20], 93.1 µM. In addition, the EC50 in [21] stood at 10.1 µM; in series [22], 4.75 µM; in series [25], 57.3 µM. In addition, the CC50 in [15], in series [19], in series [23] and in [24] was greater than 4000 µM in each case.
On to `Cn1ccc2c1C(=O)Nc1ccccc1S2`, for which the 50% effective concentration (EC50) was greater than 434 µM in the series with PBL and 16 µM in series [7].
As for `O=C(C(=O)N1CCN(C(=O)c2ccccc2)CC1)c1c[nH]c2ccccc12`, the half-maximal effective concentration (EC50) in [26], in series [27], in series [28], in series [22], in series [29] and in series [30] was 0.85 µM each time. In series [31], this molecule gave an EC50 of 0.85 µM.
As for `O=Cc1ccc2n1[C@@H](Cc1ccccc1)C(=O)Nc1ccccc1-2`, the IC90 in [5] was greater than 0.29 µg/mL.
For `Cc1ccc(C)n1-c1ccc(C(=O)O)c(O)c1`, the half-maximal effective concentration (EC50) stood at 3.94 µM in series [13]; 10.6 µM in [14]; 6.74 µM in series [16]; 1.04 µM in series [17]; 1.69 µM in series [18]; 20.6 µM in series [20]. For the same molecule, the concentration for a half-maximal effect (EC50) came out at 7.04 µM in series [21], 1.86 µM in [22] and 7.46 µM in series [25]. The CC50 in series [15] was greater than 4000 µM; in series [19], 2490 µM; in [23] it was 1860 µM; in [24] it was 2760 µM.
